The values that follow are results of earlier work, collected in patent EP0707853B1, “Muscle relaxant pharmaceutical compositions” (priority 1994, dated 1996).

The conditions of the series: for pI: isoionic point; for pI / pKa: Handbook of Chemistry and Physics, ed. 69, page C 107; for pKa: pKa values for basic groups; for isoionic point (pI): value given in the example text as the pH the solution is brought to.

SMILES strings stand for the structures.

As for `C[C@H](N)C(=O)O` [alanine], the pI is recorded as 6,1 and the pKa is on record as 9,87.
For the compound `NCC(=O)O` [glycine], the pI was 6,06 and the “isoionic point (pI)” value is listed as 6.1.
Take `O=C(O)[C@@H]1C[C@@H](O)CN1` [hydroxyproline]: the pI was 5,82 and the pKa is 9,73.
As for `CSCC[C@H](N)C(=O)O` [methionine], the pI is on record as 5,91 and the pKa is recorded as 10,6.
On to `O=C(O)[C@@H]1CCCN1` [proline], for which the pI is reported as 6,3 and the pKa was 9,87.
On to `N[C@@H](CO)C(=O)O` [serine], for which the pI is 5,68, the pKa is recorded as 9,15 and the “isoionic point (pI)” value is given as 5.67.
Regarding `CC(C)[C@H](N)C(=O)O` [valine], the pI is recorded as 6,0 and the pKa was 9,72.
